Reference: patent US9427426B2 (priority 2008, dated 2016)

Assays:
[1] = water (NAC: at 20° C.); cited from earlier work
rat = conditions: cited from earlier work
[2] = Example 2: erdosteine toxicity i.v. (lot 11); type: in vivo, Wistar rats; conditions: both sexes, Wistar, in vivo, iv, 3500 mg/kg; rat, i.v.; read-out: LD50 of i.v. form of erdosteine
From the text: (§1) These lots have been evaluated only for mortality.

rats = assay: Example 2: erdosteine toxicity i.v. (lot 11); type: in vivo, Wistar rats; conditions: erdosteine 3500 mg/kg i.v. slowly; 10 animals, not metal intoxicated
From the text: as §1

[3] = test system: rats intoxicated with mercury (mercury chloride); assay: Example 2: erdosteine i.v. vs NAC i.v. in rats intoxicated with mercury; type: in vivo, Wistar rats; conditions: for Mortalitaty total / Mortality in percent: Hg intoxicated (mercury chloride 42 mg/kg per os), 35 animals/lot; for Anatomical pathology: lesions / Hg in urine mean values / Creatinine mean values / Haematocrit mean values / Haemoglobin mean values / Leucocytes mean values / Urea mean values / Uric acid mean value / erythrocytes mean values: Hg intoxicated; for Creatinine mean values / Haematocrit mean values / Haemoglobin mean values / Leucocytes mean values / Urea mean values / Uric acid mean value / erythrocytes mean values: survivors after 7 days
Procedure: (§2) The animals have been randomly divided in 11 lots.
(§3) 3. […] NAC has been dissolved in bidistilled water.
(§4) 4. […] Erdosteine has been solubilized in bidistilled water and sodium hydrogen carbonate equimolar, the resulting solution being administered in volume of 10 ml/kg. Preliminarily we tested the different molar ratios erdosteine/sodium hydrogen carbonate in a range between 0.5:1 and 1.5:1 and the volume to be solubilized. […] Animals Monitoring:
(§5) Mortality has been recorded. […] Few animals have been collected urine eliminated spontaneously for Pb—Hg analysis. Animals have been sacrificed under general anesthesia with ether. 6 animals of each group (3 males and 3 females) have been randomly selected for macroscopic and microscopic anatomic-pathological examination.

[4] = test system: rats intoxicated with lead (lead acetate); assay: Example 1: erdosteine per os vs NAC per os in rats intoxicated with lead; type: in vivo, Wistar rats; conditions: erdosteine 875 mg/kg or NAC 500 mg/kg per os once a day for 7 days
Procedure: 3. […] NAC has been mixed with bidistilled water, the resulting solution being administered in volume of 10 ml/kg.
4. […] Erdosteine has been mixed with bidistilled water and sodium hydrogen carbonate equimolar, the resulting solution being administered in volume of 10 ml/kg.
as §5

[5] = test system: rats intoxicated with lead (lead acetate); assay: Example 2: erdosteine i.v. vs NAC i.v. in rats intoxicated with lead; type: in vivo, Wistar rats; conditions: for Mortalitaty total / Mortality in percent: Pb intoxicated (lead acetate 4665 mg/kg per os), 35 animals/lot; for Anatomical pathology: lesions / Pb in urine, Pb mean values / Creatinine mean values / Haematocrit mean values / Haemoglobin mean values / Leucocytes mean values / Urea mean values / Uric acid mean value / erythrocytes mean values: Pb intoxicated; for Creatinine mean values / Haematocrit mean values / Haemoglobin mean values / Leucocytes mean values / Urea mean values / Uric acid mean value / erythrocytes mean values: survivors after 7 days
Procedure: as §2, §3, §4, §5

[6] = test system: rats intoxicated with lead (lead acetate); assay: Example 5: erdosteine prophylaxis per os plus i.v. treatment in lead intoxication; type: in vivo, rats Wistar; parameters: RBC / ALT / Hct / MCH / Hb / WBC / Urea / Uric acid / AST: unit not given here
Procedure: The experiment has been structured for subjects that at a certain moment might be at higher risk to be intoxicated, for professional or other reasons. After intoxication the animals have been treated i.v.
Experiment has been carried out in parallel with example 3. Whatever not specified is identical with example 3.
Lot 14 One lot of 30 rats Wistar (15 males and 15 females) have been introduced in the experiment.
At day −2, day −1 and day 0 the animals have been administered 300 mg/kg erdosteine per os. At day 0, four hours after administration of erdosteine, the animals have been intoxicated with lead as described in example 3. After lead intoxications animals have been treated with erdosteine 350 mg/kg with the same protocol as described in example 3. […] Results have been compared with lot 2 since the experiments were carried out in parallel and results can be compared.

[7] = ERDO1 = erdosteine 350 mg/kg i.v. or NAC 114 mg/kg i.v. once a day for 7 days
[8] = ERDO2 = erdosteine 175 mg/kg i.v. once a day for 7 days
[9] = ERDO1 = erdosteine 350 mg/kg i.v. or NAC 114 mg/kg i.v. once a day
[10] = ERDO2 = erdosteine 175 mg/kg i.v. once a day
[11] = Pb intoxicated (lead acetate 4665 mg/kg per os), 30 animals/lot
[12] = survivors after 7 days, Pb intoxicated
[13] = lot 14: erdosteine 300 mg/kg per os at day -2, -1, 0, then lead acetate 4665 mg/kg per os and erdosteine 350 mg/kg i.v. once a day for 7 days, 30 rats
[14] = lot 14 survivors day 7, prophylaxis per os + Pb intoxication + erdosteine 350 mg/kg i.v.
[15] = lot 14 day 0 before intoxication, after erdosteine 300 mg/kg per os at day -2, -1, 0

## O=C(O)CSCC(=O)NC1CCSC1=O (stereo not drawn) [erdosteine, Erdosteine]
[1]
  solubility in water, in words: moderately soluble
rat; per os, rat where given
  LD50 per os: 8750 mg/kg
rat; rat, i.v.
  LD50 i.v.: > 3500 mg/kg
[2]
  LD50: > 3500 mg/kg
rats
  Mortalitaty total: 1/10
  Mortality in percent: 10%
[3]; [7]
  Mortalitaty total: 8 ^1, 2
  Mortality in percent: 22.6%
  Anatomical pathology: lesions: least severe damages
  Hg in urine mean values: 18.7 mg/L
[3]; ERDO1 = erdosteine 350 mg/kg i.v. or NAC 114 mg/kg i.v. once a day for 7 days, listed as ERDOI
  Mortality in percent: 22.6%
[3]; [8]
  Mortalitaty total: 12 ^1, 2
  Mortality in percent: 34.3%
  Anatomical pathology: lesions: less important lesions
  Hg in urine mean values: 14.4 mg/L
[3]; [9]
  Creatinine mean values: 0.60 ^2 mK/dl
  Haematocrit mean values: 38.43 ^3
  Haemoglobin mean values: 15.05 ^3 g/dl
  Leucocytes mean values: 17.36 ^3
  Urea mean values: 50.36 ^1, 2 mg/dl
  Uric acid mean value: 2.25 ^4 mg/dl
  erythrocytes mean values: 6.98 ^3 *10^6/mm^3
[3]; [10]
  Creatinine mean values: 0.51 ^1, 2 mK/dl
  Haematocrit mean values: 36.83 ^3
  Haemoglobin mean values: 13.86 ^J g/dl
  Leucocytes mean values: 8.61 ^3
  Urea mean values: 53.15 ^1, 2 mg/dl
  Uric acid mean value: 2.23 ^4 mg/dl
  erythrocytes mean values: 6.55 ^3 *10^6/mm^3
[4]; [11]
  Mortality in percent: 16.6%
  Mortality total: 5
[4]; Pb intoxicated
  Anatomical pathology: lesions (macroscopic and microscopic examination): less important damages
[4]; Pb intoxicated, GS MS Varian 4100
  Pb in urine, Pb mean values: 10.9 mg/L
[4]; [12]
  Creatinine mean values: 0.48 ^1, 2 mK/dl
  Haematocrit mean values: 39.41^3
  Haemoglobin mean values: 13.75^3 g/dl
  Leucocytes mean values: 7.31^3
  Urea mean values: 50.93 ^1, 2 mg/dl
  Uric acid mean value: 1.90 ^3 mg/dl
  erythrocytes mean values: 6.82^3 *10^6/mm^3
[5]; [7]
  Mortalitaty total: 5 ^1, 2
  Mortality in percent: 14.3%
  Anatomical pathology: lesions: less important damages
  Pb in urine, Pb mean values: 15.9 mg/L
[5]; [8]
  Mortalitaty total: 10 ^1, 2
  Mortality in percent: 28.6%
  Anatomical pathology: lesions: did not improve lesions
  Pb in urine, Pb mean values: 13 mg/L
[5]; [9]
  Creatinine mean values: 0.49 ^1, 2 mK/dl
  Haematocrit mean values: 37.21 ^3
  Haemoglobin mean values: 15.71 ^3 g/dl
  Leucocytes mean values: 11.36 ^3
  Urea mean values: 48.95 ^1, 2, 3 mg/dl
  Uric acid mean value: 2.28 ^4 mg/dl
  erythrocytes mean values: 7.01 ^3 *10^6/mm^3
[5]; [10]
  Creatinine mean values: 0.46 ^1, 2 mK/dl
  Haematocrit mean values: 37.7 ^3
  Haemoglobin mean values: 15.95 ^3 g/dl
  Leucocytes mean values: 14.35 ^3
  Urea mean values: 54.4 ^1, 2 mg/dl
  Uric acid mean value: 1.76 ^1, 2 mg/dl
  erythrocytes mean values: 7.07 ^3 *10^6/mm^3
[6]; [13]
  Mortality %: 20%
  Total mortality: 6/30 ^2
[6]; [14]
  ALT: 165.4^1,2
  AST: 48.9^1,2
  Hb: 17.12
  Hct: 43.81
  MCH: 23.12
  PLT: 605
  RBC: 7.446
  Urea: 62.2^1,2
  Uric acid: 2.71
  WBC: 6.98
[6]; [15]
  ALT: 166.2
  AST: 36.2
  Hb: 19.96
  Hct: 47.45
  MCH: 25.12
  PLT: 793
  RBC: 7.93
  Urea: 54.86
  Uric acid: 1.95
  WBC: 4.90
